Measurements published in patent US20050037946A1, “Methods and compositions for treating cardiovascular disease using 1722, 10280, 59917, 85553, 10653, 9235, 21668, 17794, 2210, 6169, 10102, 21061, 17662, 1468, 12282, 6350, 9035, 1820, 23652, 7301, 8925, 8701, 3533, 9462, 9123, 12788, 17729, 65552, 1261, 21476, 33770, 9380, 2569654, 33556, 53656, …” (Millennium Pharmaceuticals, Inc., priority 2003, published 2005).

Key:
[1] = humans, betaine supplemented diets vs control group; cited from earlier work
isolated rat arterioles = settings: compared to basal tone; cited from earlier work
13886 mRNA = 13886 mRNA in aortas of treated rats (TaqMan); format: in vivo; settings: seven days, vs vehicle treated controls, p<0.005 ANOVA
Text: (§1) This example describes the TaqMan™ procedure. The Taqman™ procedure is a quantitative, reverse transcription PCR-based approach for detecting mRNA. The RT-PCR reaction exploits the 5′ nuclease activity of AmpliTaq Gold™ DNA Polymerase to cleave a TaqMan™ probe during PCR. Briefly, cDNA was generated from the samples of interest, e.g., heart, kidney, liver, skeletal muscle, and various vessels, and used as the starting material for PCR amplification. In addition to the 5′ and 3′ gene-specific primers, a gene-specific oligonucleotide probe (complementary to the region being amplified) was included in the reaction (i.e., the Taqman™ probe). […]
(§2) During the PCR reaction, cleavage of the probe separates the reporter dye and the quencher dye, resulting in increased fluorescence of the reporter. Accumulation of PCR products is detected directly by monitoring the increase in fluorescence of the reporter dye. When the probe is intact, the proximity of the reporter dye to the quencher dye results in suppression of the reporter fluorescence. […]

[2] = humans; cited from earlier work
3533 mRNA = 3533 mRNA regulation by lipid lowering drugs (TaqMan)
Text: (§3) This example describes the TaqMan™ procedure. The Taqman™ procedure is a quantitative, reverse transcription PCR-based approach for detecting mRNA. The RT-PCR reaction exploits the 5′ nuclease activity of AmpliTaq Gold™ DNA Polymerase to cleave a TaqMan™ probe during PCR. Briefly, cDNA was generated from the samples of interest, e.g., heart, kidney, liver, skeletal muscle, and various vessels, and used as the starting material for PCR amplification. In addition to the 5′ and 3′ gene-specific primers, a gene-specific oligonucleotide probe (complementary to the region being amplified) was included in the reaction (i.e., the Taqman™ probe). The TaqMan™ probe includes the oligonucleotide with a fluorescent reporter dye covalently linked to the 5′ end of the probe (such as FAM (6-carboxyfluorescein), TET (6-carboxy4,7,2′,7′-tetrachlorofluorescein), JOE (6-carboxy-4,5-dichloro-2,7-dimethoxyfluorescein), or VIC) and a quencher dye (TAMRA (6-carboxy-N,N,N′,N′-tetramethylrhodamine) at the 3′ end of the probe.
(§4) During the PCR reaction, cleavage of the probe separates the reporter dye and the quencher dye, resulting in increased fluorescence of the reporter. Accumulation of PCR products is detected directly by monitoring the increase in fluorescence of the reporter dye. When the probe is intact, the proximity of the reporter dye to the quencher dye results in suppression of the reporter fluorescence. During PCR, if the target of interest is present, the probe specifically anneals between the forward and reverse primer sites. The 5′-3′ nucleolytic activity of the AmpliTaq™ Gold DNA Polymerase cleaves the probe between the reporter and the quencher only if the probe hybridizes to the target. The probe fragments are then displaced from the target, and polymerization of the strand continues. The 3′ end of the probe is blocked to prevent extension of the probe during PCR. […] RNA was prepared using the trizol method and treated with DNase to remove contaminating genomic DNA. cDNA was synthesized using standard techniques.

2569654 mRNA = 2569654 mRNA in marmoset models (TaqMan); format: in vivo
Text: as §3, §4

isolated hepatocytes = settings: via the CCK-B receptor; cited from earlier work
6169 mRNA = 6169 mRNA in Marmoset livers (TaqMan); format: in vivo
Text: as §1, §2

53656 mRNA = 53656 mRNA in livers of Marmosets (TaqMan); format: in vivo
8921 mRNA = 8921 mRNA expression in marmosets; format: in vivo
12282 mRNA = 12282 mRNA in cultured human monocytes and macrophages (TaqMan); format: cell-based; settings: 18 hours of stimulation
Text: as §1, §2

9035 mRNA = 9035 mRNA in cultured human monocytes and macrophages (TaqMan); format: cell-based; settings: 18 hours of stimulation
Text: as §1, §2

33556 mRNA = 33556 mRNA in cultured human macrophages (TaqMan); format: cell-based; settings: 18h of stimulation
Text: as §1, §2

261 mRNA = 261 mRNA in cultured human monocytes and macrophages (TaqMan); format: cell-based
Text: as §1, §2

Syk = test: 1673 (Syk) expression in monocytes and macrophages (TaqMan); format: cell-based; settings: monocytes or macrophages
Text: as §1, §2

[3] = system: serine/threonine kinase Akt; settings: primary human peripheral blood monocytes; cited from earlier work
1261 mRNA = 1261 mRNA in statically cultured or shear-stressed cells (TaqMan); format: cell-based
Text: as §3, §4

RAW 264.7 = settings: RAW 264.7, through down-regulating the activation of Akt; cited from earlier work

## C[N+](C)(C)CC(=O)[O-] [betaine, trimethylglycine]
[1]
  plasma homocysteine concentration: decrease
  total and LDL cholesterol concentration: small but significant increase

## CN[C@H]1CCc2cc(OC)c(OC)c(OC)c2-c2ccc(OC)c(=O)cc21 [demecolcine]
Isolated rat arterioles
  vasoconstriction: 32.7%

## COC(=O)[C@@H](N)CCCNC(=N)N[N+](=O)[O-] [L-NAME]
13886 mRNA
  expression of 13886 mRNA: significantly down-regulated

## CC1=C(/C=C/C(C)=C\C=C\C(C)=C\C(=O)O)C(C)(C)CCC1 [9-cis retinoic acid]
[2]
  lipid profile: increase total cholesterol, ILDL-cholesterol, apoB and triglyceride levels and decrease HDL-cholesterol

## N[C@@H](Cc1cc(I)c(Oc2ccc(O)c(I)c2)c(I)c1)C(=O)O [T3]
3533 mRNA
  3533 mRNA expression: downregulated
2569654 mRNA
  2569654 mRNA expression: upregulated

## COc1cc2c(c(OC)c1OC)-c1ccc(OC)c(=O)cc1[C@@H](NC(C)=O)CC2 [Colchicine]
Isolated rat arterioles
  vasoconstriction: 33.9%

## cholesystkinin-8 [CCK-8]
Isolated hepatocytes
  reduction of triacylglycerol secretion: 53%

## COCc1c(C(C)C)nc(C(C)C)c(/C=C/[C@@H](O)C[C@@H](O)CC(=O)O)c1-c1ccc(F)cc1 [cerivastatin]
6169 mRNA
  6169 mRNA upregulated: 2.4 fold
53656 mRNA
  53656 mRNA upregulated: 1.4 fold
8921 mRNA
  increase in 8921 mRNA expression: 1.4 fold

## interferon gamma
12282 mRNA
  12282 mRNA expression: upregulated
9035 mRNA
  9035 mRNA expression: upregulated
33556 mRNA
  33556 mRNA expression: upregulated
261 mRNA
  261 mRNA expression: downregulated
Syk
  Syk expression: No apparent upregulation
[3]
  phosphorylation of the serine/threonine kinase Akt: induces

## IL-1β
1261 mRNA
  1261 expression in response to angiogenic/inflammatory stimuli: transient upregulation

## CCCCCCCCCCCCC/C=C/[C@@H](O)[C@H](CO)NC(C)=O [C(2)-ceramide]
RAW 264.7
  LPS-induced NO production: inhibit
